Measured values as given in patent publication US20250034127A1, “AUTOPHAGY INDUCING COMPOUNDS AND USES THEREOF, IN PARTICULAR FOR DISEASES OF THE CNS” (Samsara Therapeutics Inc., priority 2021, published 2025).

System: U2OS cell line stabling expressing RFP-eGFP-hLC3b
Assay: Tandem reporter assay (autophagic flux)
Format: cell-based, human
Settings: RFP-only puncta as percentage of DMSO-treated control, 24 hours
Protocol: Selected compounds of this invention were also assessed for their ability to stimulate autophagy using a U2OS cell line stabling expressing RFP-cGFP-hLC3b (a tandem reporter cell line).
During the process of autophagy, the cargo to be degraded is first enveloped by organelles called autophagosomes. These autophagosomes then fuse with lysosomes, causing them to become acidified and their digestive enzymes to become activated. The term “autophagic flux” is used to represent the dynamic process of autophagy: autophagic flux refers to the whole process of autophagy, including autophagosome formation, maturation, fusion with lysosomes, subsequent breakdown and the release of macromolecules back into the cytosol (Zhang X J, Chen S, Huang K X, Le W D. Why should autophagic flux be assessed? Acta Pharmacol Sin. 2013 May; 34 (5): 595-9. doi: 10.1038/aps.2012.184. Epub 2013 Mar. 11). Compounds that stimulate autophagic flux stimulate the dynamic process of autophagy (the whole process of autophagy).
LC3b is a protein found in the membrane of autophagosomes which has been used to generate genetic reporters of autophagy in cells. In these systems a tandem fusion of LC3b is engineered with two fluorescent proteins of different wavelengths: one which is acid sensitive (for example eGFP, which fluoresces green) and the other which is acid insensitive (for example RFP, which fluoresces red). Cells expressing RFP-cGFP-hLC3b can be examined using fluorescent microscopy: the autophagosomes present will fluoresce in both channels (either yellow in an overlay of both channels or puncta that are present in both the individual red and green channels) but the autolysosomes present will fluoresce in the RFP (red) channel only. Using a fluorescent microscope, the number of autophagosomes and autolysosomes can be counted, allowing for the monitoring of both the induction of autophagy (total puncta count) and the rate of autophagic flux (ratio of red-only to red-and-green puncta). The influence of small molecules on autophagy induction and flux can be assessed using this system by comparison to a non-treated control.
Representative Procedure: Human osteosarcoma U2OS cells stably expressing RFP-eGFP-hLC3b were seeded (10,000 cells/well) into a 96-well glass-bottom plate (Cell Carrier Ultra, Perkin Elmer) in DMEM Glutamax media (Gibco) supplemented with 10% Fetal Bovine Serum (FBS) and antibiotics (100 u/ml penicillin, 100 μg/ml streptomycin, Invitrogen), then incubated overnight in a humified atmosphere at 37° C. and 5% CO2. The cells were then treated with the compounds of interest, dissolved in DMSO, in a duplicated 5- or 10-point dose-response. 8 wells were treated with an equivalent volume of DMSO, 4 with […] torin-1 as a positive control (MCE) and 4 wells with 0.4 μM torin-1 plus 0.2 μM bafilomycin (MCE) as a control for flux inhibition. The cells were returned to the incubator and the treatment continued for 24 hours. After treatment, the media was aspirated off and the cells fixed with a solution of 4% formaldehyde+1% glutaraldehyde (Sigma) in dPBS (plus magnesium and calcium, Gibco). Fixation was allowed to proceed for 15 minutes at room temperature then the fixative solution discarded and replaced with PBS (Gibco) plus Hoescht 33342 (1 μg/ml, Sigma). After 30 minutes the plates were imaged on an Opera Phenix confocal microscope (Perkin-Elmer) using a 40× water objective, collecting using DAPI, mCherry and GFP channels. Cells were detected based upon the staining of their nuclei with DAPI using the Harmony image analysis software (Perkin-Elmer) and the number of autophagosomes (GFP and RFP puncta) and autolysosomes (RFP only puncta) per cell were counted using the spot picking function within the software.

CC(C)c1ccc(-n2cc(-c3nc(C(=O)N4CCN[C@@H](C)C4)cs3)cn2)cc1 [Compound 273, (3S)-3-methyl-1-(2-{1-[4-(propan-2-yl)phenyl]-1H-pyrazol-4-yl}-1,3-thiazole-4-carbonyl)piperazine]
Autolysosome % DMSO activity (compound concentration of 1 μM): 224%

CC1CC(N(C(=O)c2csc(-c3cnn(-c4ccccc4)c3)n2)C(C)C)CC(C)N1 (stereo not drawn) [Compound 298, N-(2,6-dimethylpiperidin-4-yl)-2-(1-phenyl-1H-pyrazol-4-yl)-N-(propan-2-yl)-1,3-thiazole-4-carboxamide]
Autolysosome % DMSO activity (compound concentration of 1 μM): 187%
Autolysosome % DMSO activity (compound concentration of 10 μM): 151%

C[C@H]1CN(C(=O)c2csc(-c3cnn(-c4ccc(C5CC5)cc4)c3)n2)CCN1 [Compound 266, (3S)-1-{2-[1-(4-cyclopropylphenyl)-1H-pyrazol-4-yl]-1,3-thiazole-4-carbonyl}-3-methylpiperazine]
Autolysosome % DMSO activity (compound concentration of 1 μM): 176%
Autolysosome % DMSO activity (compound concentration of 10 μM): 273%

CC1CC(N(C(=O)c2csc(-c3cnn(-c4ccccc4)c3)n2)C(C)C)CCN1 (stereo not drawn) [Compound 297, N-(2-methylpiperidin-4-yl)-2-(1-phenyl-1H-pyrazol-4-yl)-N-(propan-2-yl)-1,3-thiazole-4-carboxamide]
Autolysosome % DMSO activity (compound concentration of 1 μM): 109%
Autolysosome % DMSO activity (compound concentration of 10 μM): 119%

C[C@H]1CN(C(=O)c2csc(-c3cnn(-c4ccc(C(C)(C)C)cc4)c3)n2)CCN1 [Compound 270, (3S)-1-{2-[1-(4-tert-butylphenyl)-1H-pyrazol-4-yl]-1,3-thiazole-4-carbonyl}-3-methylpiperazine]
Autolysosome % DMSO activity (compound concentration of 1 μM): 251%

CC(C)N(C(=O)c1csc(-c2cnn(-c3ccccc3)c2)n1)[C@@H]1CN[C@H](C)C1 [Compound 299, N-[(3S,5R)-5-methylpyrrolidin-3-yl]-2-(1-phenyl-1H-pyrazol-4-yl)-N-(propan-2-yl)-1,3-thiazole-4-carboxamide]
Autolysosome % DMSO activity (compound concentration of 1 μM): 162%
Autolysosome % DMSO activity (compound concentration of 10 μM): 152%

C[C@H]1CN(C(=O)c2nc(-c3cnn(-c4ccccc4)c3)c[nH]2)CCN1 [Compound 279, (3S)-3-methyl-1-[5-(1-phenyl-1H-pyrazol-4-yl)-1H-imidazole-2-carbonyl]piperazine]
Autolysosome % DMSO activity (compound concentration of 1 μM): 123%
Autolysosome % DMSO activity (compound concentration of 10 μM): 158%
